Reference: PubChem BioAssay AID1259407 (Chemical Carcinogenesis Research Information System (CCRIS), 2018)
Activity calls are given as the source filed them. How the calls were made is not given here.

Tested on: CCRIS mutagenicity, Ames/micronucleus/aberration tests
Test: CCRIS mutagenicity studies
[1] = Test System: AMES SALMONELLA TYPHIMURIUM, Strain/Indicator: TA98, Metabolic Activation: RAT, LIVER, S-9, AROCLOR 1254, Method: STANDARD PLATE
[2] = Test System: AMES SALMONELLA TYPHIMURIUM, Strain/Indicator: TA98, Metabolic Activation: NONE, Method: STANDARD PLATE
[3] = Test System: AMES SALMONELLA TYPHIMURIUM, Strain/Indicator: TA100, Metabolic Activation: NONE, Method: STANDARD PLATE
[4] = Test System: AMES SALMONELLA TYPHIMURIUM, Strain/Indicator: TA100, Metabolic Activation: RAT, LIVER, S-9, AROCLOR 1254, Method: STANDARD PLATE

[K+]
mutagenic call (End Point: IN VIVO MICRONUCLEUS, Test System: BONE MARROW POLYCHROMATIC ERYTHROCYTES, Species: MOUSE, Strain/Sex: DDY/MALE, Route: IP): inactive; negative | mutagenic call (End Point: In vitro chromosomal aberrations, Test System: Chinese hamster lung (CHL) cells, Metabolic Activation: None): active; positive (structural changes) | mutagenic call (Test System: AMES SALMONELLA TYPHIMURIUM, Strain/Indicator: TA97, Metabolic Activation: HAMSTER, LIVER, S-9, AROCLOR 1254 (10 OR 30%), Method: PREINCUBATION): inactive; negative | mutagenic call (Test System: AMES SALMONELLA TYPHIMURIUM, Strain/Indicator: TA97, Metabolic Activation: NONE, Method: PREINCUBATION): inactive; negative | mutagenic call (Test System: AMES SALMONELLA TYPHIMURIUM, Strain/Indicator: TA97, Metabolic Activation: RAT, LIVER, S-9, AROCLOR 1254 (10 OR 30%), Method: PREINCUBATION): inactive; negative | mutagenic call (Test System: AMES SALMONELLA TYPHIMURIUM, Strain/Indicator: TA98, Metabolic Activation: HAMSTER, LIVER, S-9, AROCLOR 1254 (10 OR 30%), Method: PREINCUBATION): inactive; negative | mutagenic call (Test System: AMES SALMONELLA TYPHIMURIUM, Strain/Indicator: TA98, Metabolic Activation: NONE, Method: PREINCUBATION): inactive; negative | mutagenic call (Test System: AMES SALMONELLA TYPHIMURIUM, Strain/Indicator: TA98, Metabolic Activation: RAT, LIVER, S-9, AROCLOR 1254 (10 OR 30%), Method: PREINCUBATION): inactive; negative | mutagenic call (Test System: AMES SALMONELLA TYPHIMURIUM, Strain/Indicator: TA100, Metabolic Activation: HAMSTER, LIVER, S-9, AROCLOR 1254 (10 OR 30%), Method: PREINCUBATION): inactive; negative | mutagenic call (Test System: AMES SALMONELLA TYPHIMURIUM, Strain/Indicator: TA100, Metabolic Activation: NONE, Method: PREINCUBATION): inactive; negative | mutagenic call (Test System: AMES SALMONELLA TYPHIMURIUM, Strain/Indicator: TA100, Metabolic Activation: RAT, LIVER, S-9, AROCLOR 1254 (10 OR 30%), Method: PREINCUBATION): inactive; negative | mutagenic call (Test System: AMES SALMONELLA TYPHIMURIUM, Strain/Indicator: TA1535, Metabolic Activation: HAMSTER, LIVER, S-9, AROCLOR 1254 (10 OR 30%), Method: PREINCUBATION): inactive; negative | mutagenic call (Test System: AMES SALMONELLA TYPHIMURIUM, Strain/Indicator: TA1535, Metabolic Activation: NONE, Method: PREINCUBATION): inactive; negative | mutagenic call (Test System: AMES SALMONELLA TYPHIMURIUM, Strain/Indicator: TA1535, Metabolic Activation: RAT, LIVER, S-9, AROCLOR 1254 (10 OR 30%), Method: PREINCUBATION): inactive; negative

O[C@@H]1C=Cc2c(cc3ccc4cccc5ccc2c3c45)[C@@H]1O
mutagenic call [1]: active; positive

CC1(C)CCC2(C(=O)OC3OC(CO)C(O)C(O)C3O)CCC3(CO)C(=CCC4C5(C)CC(O)C(O)C(C)(C(=O)OC6OC(CO)C(O)C(O)C6O)C5CCC43C)C2C1 (centres undefined)
mutagenic call (End Point: In vivo micronucleus, Test System: Bone marrow polychromatic erythrocytes, Species: Mouse, Strain/Sex: C57BL/6J/Male, Route: Intraperitoneal): inactive; negative; protective when coadministered with gamma radiation | mutagenic call (Test System: MOUSE LYMPHOMA, Strain/Indicator: L5178Y (TK+/TK-), Metabolic Activation: NONE, Method: SUSPENSION/PLATE): inactive; negative. reevaluation of results: negative | mutagenic call (Test System: MOUSE LYMPHOMA, Strain/Indicator: L5178Y (TK+/TK-), Metabolic Activation: RAT, LIVER, S-9, AROCLOR 1254, Method: SUSPENSION/PLATE): inactive; negative. reevaluation of results: negative

COc1cc2c(cc1O)CCN[C@]21CS[C@@H]2c3c(OC(C)=O)c(C)c4c(c3[C@H](COC1=O)N1[C@@H]2[C@H]2c3c(cc(C)c(OC)c3O)C[C@@H]([C@@H]1O)N2C)OCO4
mutagenic call (Test System: AMES SALMONELLA TYPHIMURIUM, Strain/Indicator: TA98, Metabolic Activation: HAMSTER, LIVER, S-9, AROCLOR 1254, Method: STANDARD PLATE): active; positive | mutagenic call [2]: inactive; negative | mutagenic call [1]: active; positive | mutagenic call (Test System: AMES SALMONELLA TYPHIMURIUM, Strain/Indicator: TA100, Metabolic Activation: HAMSTER, LIVER, S-9, AROCLOR 1254, Method: STANDARD PLATE): inactive; negative | mutagenic call [3]: inactive; negative | mutagenic call [4]: inactive; negative | mutagenic call (Test System: Mouse lymphoma, Strain/Indicator: L5178Y (tk+/tk-), Metabolic Activation: None, Method: Suspension/plate): active; positive | mutagenic call (Test System: Mouse lymphoma, Strain/Indicator: L5178Y (tk+/tk-), Metabolic Activation: Rat, Liver, S-9, Aroclor 1254, Method: Suspension/plate): active; positive

O=S(=O)(Nc1cccc(Cl)c1)c1cccc2cccnc12
mutagenic call [2]: inactive; negative | mutagenic call [1]: inactive; negative | mutagenic call [3]: inactive; negative | mutagenic call [4]: inactive; negative | mutagenic call (Test System: AMES SALMONELLA TYPHIMURIUM, Strain/Indicator: TA1535, Metabolic Activation: NONE, Method: STANDARD PLATE): inactive; negative | mutagenic call (Test System: AMES SALMONELLA TYPHIMURIUM, Strain/Indicator: TA1535, Metabolic Activation: RAT, LIVER, S-9, AROCLOR 1254, Method: STANDARD PLATE): inactive; negative | mutagenic call (Test System: AMES SALMONELLA TYPHIMURIUM, Strain/Indicator: TA1537, Metabolic Activation: NONE, Method: STANDARD PLATE): inactive; negative | mutagenic call (Test System: AMES SALMONELLA TYPHIMURIUM, Strain/Indicator: TA1537, Metabolic Activation: RAT, LIVER, S-9, AROCLOR 1254, Method: STANDARD PLATE): inactive; negative
